Laboratory results published in patent US8461117B2, “Chemical linkers and cleavable substrates and conjugates thereof” (Medarex, Inc., priority 2006, dated 2013).

Key:
[1] = cited from earlier work
[2] = tested on: 786-O; experiment: Second in vivo study: 786-O xenografts, cytotoxins (Compounds A, F, H-J) conjugated to anti-CD70 HuMAb 2H5; design: species or system CB17.SCID mice; settings: 786-O xenograft, tumors averaging 200 mm^3, single IP dose Day 0, 0.005-0.03 Toxin μmole, conjugated to CD70.1
Method: (§1) 786-O (ATCC Accession No. CRL-1932) cells were expanded in vitro using standard laboratory procedures. Male CB17.SCID mice (Taconic, Hudson, N.Y.) between 6-8 weeks of age were implanted subcutaneously in the right flank with 2.5 million 786-O in 0.2 ml of PBS/Matrigel (1:1) per mouse. Mice were weighed and measured for tumors three dimensionally using an electronic caliper twice weekly after implantation. Tumor volumes were calculated as height×width×length. Mice with tumors averaging 200 mm^3 were randomized into treatment groups. The mice were dosed intraperitoneally with PBS vehicle, cytotoxin-conjugated isotype control antibody or cytotoxin-conjugated anti-CD70 HuMAb 2H5 on Day 0. Each group contained 8 mice.

[3] = tested on: 786-O; experiment: First in vivo study: 786-O xenografts, cytotoxins (Compounds A-G) conjugated to anti-CD70 HuMAb 2H5; design: species or system CB17.SCID mice; settings: 786-O xenograft, tumors averaging 200 mm^3, single IP dose Day 0, 0.1 (some also 0.01) Toxin μmole, conjugated to CD70.1
Method: as §1, with “as height x width x length.” for “as height×width×length.”, “contained 7” for “contained 8”

Structure (SMILES) | Efficacy, descending order (mean/median tumor volume versus days past dosing, FIGS. 4-5) [2] | other results
COc1c(O)c2c(c3cc(C(=O)N4CCc5c4c(O)c(OC)c4[nH]c(C(=O)N6CC7CC78C6=CC(=O)c6[nH]cc(C)c68)cc54)[nH]c13)CCN2C(N)=O (stereo not drawn) [CC-1065] | – | Antitumor and antimicrobial activity ([1]; both in vitro and in experimental animals (Li et al. 1982)): potent antitumor and antimicrobial activity; Toxicity in experimental animals ([1]; experimental animals): delayed death
CC(C)[C@H](NC(=O)CCOCCOCCOCCOCCNC(=O)CCN1C(=O)C=CC1=O)C(=O)N[C@@H](CCCNC(N)=O)C(=O)N1CCc2c1ccc1[nH]c(C(=O)N3C[C@@H](CBr)c4c3cc(OC(=O)N3CCN(C)CC3)c3ccccc43)cc21 [Compound C] | Compound J/Compound C>Compound H>Compound G/Compound I>Naked CD70.1 | –
CC(C)[C@H](NC(=O)CCOCCOCCOCCOCCNC(=O)CCN1C(=O)C=CC1=O)C(=O)N[C@@H](CCCNC(N)=O)C(=O)N1CCc2c1ccc1[nH]c(C(=O)N3C[C@@H](CBr)c4c3cc(OC(=O)N3CCN(C)CC3)c3ccccc43)cc21 [Compound D] | – | Efficacy, descending order (mean/median tumor volume versus days past dosing, FIGS. 1-2) [3]: Compound D>Compound A>Compound F>Compound B>Compound C>Compound E>Naked CD70.1/Compound G
CC(C)[C@H](NCCNC(=O)CCCN1C(=O)C=CC1=O)C(=O)N[C@@H](CCCNC(N)=O)C(=O)Nc1ccc(C(=O)Nc2ccc3[nH]c(C(=O)N4C[C@@H](CBr)c5c4cc(OC(=O)N4CCN(C)CC4)c4ccccc54)cc3c2)cc1 [Compound H] | Compound J/Compound C>Compound H>Compound G/Compound I>Naked CD70.1 | –
CC(C)[C@H](NCCNC(=O)CCCN1C(=O)C=CC1=O)C(=O)N[C@@H](CCCNC(N)=O)C(=O)Nc1ccc(C(=O)Nc2ccc3[nH]c(C(=O)N4C[C@@H](CCl)c5c4cc(OC(=O)N4CCN(C)CC4)c4ccccc54)cc3c2)cc1 [Compound J] | Compound J/Compound C>Compound H>Compound G/Compound I>Naked CD70.1 | –
